{"source": "the supplement of paper PMC10307832", "assay_in_all_cases": "relative viability (nuclei count vs DMSO), 5 days (fraction); higher = more cells survive", "key": {"[1]": {"tested_on": "SW 1573", "in_short": "(§1)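 Cells from lung cancer lines were seeded into 1536-well plates and, one day later, dosed by pin tool. Treatments were either a single drug or a fixed dose of an anchor drug with five library-drug doses (not always all listed) in √10 steps. After 5 days, nuclei were stained in a one-step fixation (final 0.05% Triton X-100, 1% formaldehyde, 1 ug/ml Hoechst) and counted on 4× images, and relative viability is the treated-to-vehicle nuclei ratio, as the median of duplicate plates.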"}, "[2]": {"tested_on": "A-427", "in_short": "as §1"}, "[3]": {"tested_on": "NCI-H1993", "in_short": "as §1"}, "[4]": {"tested_on": "LXF-289", "in_short": "as §1"}, "[5]": {"tested_on": "NCI-H358", "in_short": "as §1"}, "[6]": {"tested_on": "NCI-H1734", "in_short": "as §1"}, "[7]": {"tested_on": "NCI-H441", "in_short": "as §1"}, "[8]": {"tested_on": "NCI-H520", "in_short": "as §1"}, "[9]": {"tested_on": "NCI-H522", "in_short": "as §1"}, "[10]": {"tested_on": "COR-L23", "in_short": "as §1"}, "[11]": {"tested_on": "BEN", "in_short": "as §1"}, "[12]": {"tested_on": "EKVX", "in_short": "as §1"}, "[13]": {"tested_on": "HOP-62", "in_short": "as §1"}, "[14]": {"tested_on": "NCI-H2347", "in_short": "as §1"}, "[15]": {"tested_on": "NCI-H2023", "in_short": "as §1"}, "[16]": {"tested_on": "HCC-44", "in_short": "as §1"}, "[17]": {"tested_on": "LC-2-ad", "in_short": "as §1"}, "[18]": {"tested_on": "HCC-78", "in_short": "as §1"}, "[19]": {"tested_on": "ABC-1", "in_short": "as §1"}, "[20]": {"tested_on": "NCI-H1793", "in_short": "as §1"}, "[21]": {"tested_on": "NCI-H1650", "in_short": "as §1"}, "[22]": {"tested_on": "LOU-NH91", "in_short": "as §1"}, "[23]": {"tested_on": "NCI-H596", "in_short": "as §1"}}, "data": [{"smiles": "C=C1C(=O)O[C@@H](CCCCCCCC)[C@@H]1C(=O)O", "note": "[C-75] + O=C(CCCCCCC(=O)Nc1ccccc1)NO [Vorinostat] (partner 1 µM)", "values": [{"measurement": "relative viability", "setting": "[1]; first compound 0.08 µM", "result": 0.976}, {"measurement": "relative viability", "setting": "[1]; first compound 0.253 µM", "result": 0.816}, {"measurement": "relative viability", "setting": "[1]; first compound 0.8 µM", "result": 0.701}, {"measurement": "relative viability", "setting": "[1]; first compound 2.53 µM", "result": 0.442}, {"measurement": "relative viability", "setting": "[1]; first compound 8 µM", "result": 0.517}, {"measurement": "relative viability", "setting": "[2]; first compound 0.08 µM", "result": 0.851}, {"measurement": "relative viability", "setting": "[2]; first compound 0.253 µM", "result": 0.822}, {"measurement": "relative viability", "setting": "[2]; first compound 0.8 µM", "result": 0.615}, {"measurement": "relative viability", "setting": "[2]; first compound 2.53 µM", "result": 0.755}, {"measurement": "relative viability", "setting": "[2]; first compound 8 µM", "result": 0.852}, {"measurement": "relative viability", "setting": "[3]; first compound 0.08 µM", "result": 0.719}, {"measurement": "relative viability", "setting": "[3]; first compound 0.253 µM", "result": 0.842}, {"measurement": "relative viability", "setting": "[3]; first compound 0.8 µM", "result": 0.616}, {"measurement": "relative viability", "setting": "[3]; first compound 2.53 µM", "result": 0.715}, {"measurement": "relative viability", "setting": "[3]; first compound 8 µM", "result": 0.657}, {"measurement": "relative viability", "setting": "[4]; first compound 0.08 µM", "result": 0.716}, {"measurement": "relative viability", "setting": "[4]; first compound 0.253 µM", "result": 0.927}, {"measurement": "relative viability", "setting": "[4]; first compound 0.8 µM", "result": 0.742}, {"measurement": "relative viability", "setting": "[4]; first compound 2.53 µM", "result": 0.781}, {"measurement": "relative viability", "setting": "[4]; first compound 8 µM", "result": 0.749}, {"measurement": "relative viability", "setting": "[5]; first compound 0.08 µM", "result": 0.704}, {"measurement": "relative viability", "setting": "[5]; first compound 0.253 µM", "result": 0.789}, {"measurement": "relative viability", "setting": "[5]; first compound 0.8 µM", "result": 0.689}, {"measurement": "relative viability", "setting": "[5]; first compound 8 µM", "result": 0.608}, {"measurement": "relative viability", "setting": "[6]; first compound 0.08 µM", "result": 0.834}, {"measurement": "relative viability", "setting": "[6]; first compound 0.253 µM", "result": 0.877}, {"measurement": "relative viability", "setting": "[6]; first compound 0.8 µM", "result": 0.766}, {"measurement": "relative viability", "setting": "[6]; first compound 2.53 µM", "result": 0.538}, {"measurement": "relative viability", "setting": "[6]; first compound 8 µM", "result": 0.693}, {"measurement": "relative viability", "setting": "[7]; first compound 0.08 µM", "result": 0.82}, {"measurement": "relative viability", "setting": "[7]; first compound 0.253 µM", "result": 0.885}, {"measurement": "relative viability", "setting": "[7]; first compound 0.8 µM", "result": 0.764}, {"measurement": "relative viability", "setting": "[7]; first compound 8 µM", "result": 0.568}, {"measurement": "relative viability", "setting": "[8]; first compound 0.08 µM", "result": 0.647}, {"measurement": "relative viability", "setting": "[8]; first compound 0.253 µM", "result": 0.716}, {"measurement": "relative viability", "setting": "[8]; first compound 0.8 µM", "result": 0.637}, {"measurement": "relative viability", "setting": "[8]; first compound 2.53 µM", "result": 0.577}, {"measurement": "relative viability", "setting": "[8]; first compound 8 µM", "result": 0.592}, {"measurement": "relative viability", "setting": "[9]; first compound 0.08 µM", "result": 0.912}, {"measurement": "relative viability", "setting": "[9]; first compound 0.253 µM", "result": 0.811}, {"measurement": "relative viability", "setting": "[9]; first compound 0.8 µM", "result": 0.905}, {"measurement": "relative viability", "setting": "[9]; first compound 2.53 µM", "result": 0.655}, {"measurement": "relative viability", "setting": "[9]; first compound 8 µM", "result": 0.868}, {"measurement": "relative viability", "setting": "[10]; first compound 0.08 µM", "result": 0.507}, {"measurement": "relative viability", "setting": "[10]; first compound 0.253 µM", "result": 0.408}, {"measurement": "relative viability", "setting": "[10]; first compound 0.8 µM", "result": 0.446}, {"measurement": "relative viability", "setting": "[10]; first compound 2.53 µM", "result": 0.37}, {"measurement": "relative viability", "setting": "[10]; first compound 8 µM", "result": 0.327}, {"measurement": "relative viability", "setting": "[11]; first compound 0.08 µM", "result": 0.642}, {"measurement": "relative viability", "setting": "[11]; first compound 0.253 µM", "result": 0.574}, {"measurement": "relative viability", "setting": "[11]; first compound 0.8 µM", "result": 0.524}, {"measurement": "relative viability", "setting": "[11]; first compound 2.53 µM", "result": 0.647}, {"measurement": "relative viability", "setting": "[11]; first compound 8 µM", "result": 0.606}, {"measurement": "relative viability", "setting": "[12]; first compound 0.08 µM", "result": 0.725}, {"measurement": "relative viability", "setting": "[12]; first compound 0.253 µM", "result": 0.827}, {"measurement": "relative viability", "setting": "[12]; first compound 0.8 µM", "result": 0.654}, {"measurement": "relative viability", "setting": "[12]; first compound 8 µM", "result": 0.728}, {"measurement": "relative viability", "setting": "[13]; first compound 0.08 µM", "result": 0.563}, {"measurement": "relative viability", "setting": "[13]; first compound 0.253 µM", "result": 0.834}, {"measurement": "relative viability", "setting": "[13]; first compound 0.8 µM", "result": 0.629}, {"measurement": "relative viability", "setting": "[13]; first compound 2.53 µM", "result": 0.478}, {"measurement": "relative viability", "setting": "[13]; first compound 8 µM", "result": 0.449}, {"measurement": "relative viability", "setting": "[14]; first compound 0.08 µM", "result": 0.567}, {"measurement": "relative viability", "setting": "[14]; first compound 0.253 µM", "result": 0.842}, {"measurement": "relative viability", "setting": "[14]; first compound 0.8 µM", "result": 0.614}, {"measurement": "relative viability", "setting": "[14]; first compound 2.53 µM", "result": 0.535}, {"measurement": "relative viability", "setting": "[14]; first compound 8 µM", "result": 0.615}, {"measurement": "relative viability", "setting": "[15]; first compound 0.08 µM", "result": 0.653}, {"measurement": "relative viability", "setting": "[15]; first compound 0.253 µM", "result": 0.944}, {"measurement": "relative viability", "setting": "[15]; first compound 0.8 µM", "result": 0.604}, {"measurement": "relative viability", "setting": "[15]; first compound 2.53 µM", "result": 0.6}, {"measurement": "relative viability", "setting": "[15]; first compound 8 µM", "result": 0.37}, {"measurement": "relative viability", "setting": "[16]; first compound 0.08 µM", "result": 1.1}, {"measurement": "relative viability", "setting": "[16]; first compound 0.253 µM", "result": 0.994}, {"measurement": "relative viability", "setting": "[16]; first compound 0.8 µM", "result": 1.07}, {"measurement": "relative viability", "setting": "[16]; first compound 2.53 µM", "result": 1.13}, {"measurement": "relative viability", "setting": "[16]; first compound 8 µM", "result": 1.07}, {"measurement": "relative viability", "setting": "[17]; first compound 0.08 µM", "result": 0.72}, {"measurement": "relative viability", "setting": "[17]; first compound 0.253 µM", "result": 0.717}, {"measurement": "relative viability", "setting": "[17]; first compound 0.8 µM", "result": 0.681}, {"measurement": "relative viability", "setting": "[17]; first compound 2.53 µM", "result": 0.689}, {"measurement": "relative viability", "setting": "[17]; first compound 8 µM", "result": 0.666}, {"measurement": "relative viability", "setting": "[18]; first compound 0.08 µM", "result": 0.372}, {"measurement": "relative viability", "setting": "[18]; first compound 0.253 µM", "result": 0.668}, {"measurement": "relative viability", "setting": "[18]; first compound 0.8 µM", "result": 0.373}, {"measurement": "relative viability", "setting": "[18]; first compound 8 µM", "result": 0.372}, {"measurement": "relative viability", "setting": "[19]; first compound 0.08 µM", "result": 1.32}, {"measurement": "relative viability", "setting": "[19]; first compound 0.253 µM", "result": 1.18}, {"measurement": "relative viability", "setting": "[19]; first compound 0.8 µM", "result": 0.547}, {"measurement": "relative viability", "setting": "[19]; first compound 2.53 µM", "result": 0.805}, {"measurement": "relative viability", "setting": "[19]; first compound 8 µM", "result": 0.649}, {"measurement": "relative viability", "setting": "[20]; first compound 0.08 µM", "result": 0.674}, {"measurement": "relative viability", "setting": "[20]; first compound 0.253 µM", "result": 1.01}, {"measurement": "relative viability", "setting": "[20]; first compound 2.53 µM", "result": 0.425}, {"measurement": "relative viability", "setting": "[20]; first compound 8 µM", "result": 0.751}, {"measurement": "relative viability", "setting": "[21]; first compound 0.08 µM", "result": 0.597}, {"measurement": "relative viability", "setting": "[21]; first compound 0.253 µM", "result": 0.751}, {"measurement": "relative viability", "setting": "[21]; first compound 0.8 µM", "result": 0.665}, {"measurement": "relative viability", "setting": "[21]; first compound 8 µM", "result": 0.463}, {"measurement": "relative viability", "setting": "[22]; first compound 0.08 µM", "result": 0.939}, {"measurement": "relative viability", "setting": "[22]; first compound 0.253 µM", "result": 0.939}, {"measurement": "relative viability", "setting": "[22]; first compound 0.8 µM", "result": 0.828}, {"measurement": "relative viability", "setting": "[22]; first compound 8 µM", "result": 0.898}, {"measurement": "relative viability", "setting": "[23]; first compound 0.08 µM", "result": 0.644}, {"measurement": "relative viability", "setting": "[23]; first compound 0.253 µM", "result": 0.642}, {"measurement": "relative viability", "setting": "[23]; first compound 0.8 µM", "result": 0.671}, {"measurement": "relative viability", "setting": "[23]; first compound 2.53 µM", "result": 0.516}, {"measurement": "relative viability", "setting": "[23]; first compound 8 µM", "result": 0.483}]}]}
